Patent US20210395680A1, “COMPOSITION AND KIT FOR DIFFERENTIATION OF STEM CELLS INTO NEURAL PROGENITOR CELLS, AND METHOD USING SAME” (CHA UNIVERSITY INDUSTRY-ACADEMIC COOPERATION FOUNDATION, priority 2018, published 2021)

Key:
[1] = test system: H9 human embryonic stem cells (hESCs); assay: Differentiation of H9 hESCs into neural progenitor cells via embryoid bodies; SOX1/P75 flow cytometry; type: cell-based
Description: Colonies obtained by culturing H9 human embryonic stem cells (hESCs) (WiCell Research Institute, Inc. Madison, Wis., U.S.A.) in a culture medium were dissociated into single cells using accutase (Life Technologies).
The cells dissociated into single cells were seeded in a culture plate coated with a protein such as vitronectin (VTN) (vitronectin XF, STEMCELL Technologies), laminine (rhLaminin-521, Thermo Fisher Scientific Inc., Waltham, Mass., USA), fibronectin (Thermo Fisher Scientific Inc.), or Matrigel™ (StemCell Technologies, Inc.). An embryonic stem cell (ESC) culture medium was added to the seeded cells to perform undifferentiation culture. As the ESC culture medium, Essential 8 (E8) medium (StemCell Technologies Inc.), TeSR2 medium (StemCell Technologies Inc), StemMACS (Miltenyi Biotec, Bergisch Gladbach, Germany), etc. was used.
(§1) The obtained colonies were finely chopped and suspension-cultured under conditions of 37° C. and 5% CO2 in a defined medium 1 containing 5 […] of a PKC inhibitor and 0.5 μM of a BMP inhibitor for about 4 days to prepare embryoid bodies (EBs). The defined medium 1 included DMEM/F12 (Life Technologies), 10 μg/ml of insulin (Sigma-Aldrich), 9 μg/ml of transferrin (Sigma-Aldrich), and 14 ng/ml of sodium selenite (Sigma-Aldrich). 3-(1-(3-Imidazol-1-yl propyl)-1H-indol-3-yl)-4-anilino-1H-pyrrole-2,5-dione) (PKC-beta inhibitor) (Millipore) was used as the PKC inhibitor. DMH1 (dorsomorphin homolog 1) (Tocris Bioscience, USA) which is a compound inhibiting BMP 1 type receptor was used as the BMP inhibitor. As a negative control, dimethyl sulfoxide (DMSO) (Sigma-Aldrich) was used instead of the drug.
(§2) EBs, which are round cell masses produced by suspension culture (defined medium 1) for about 4 days, were finely chopped, and then adhered to the bottom of the culture plate, followed by adherent culture for about 5 days (DMEM-F12, 1×N2 supplement, 25 μg/ml of insulin, 20 ng/ml of bFGF, and a matrigel-coated culture plate were used). Microscopic images of EBs obtained by suspension culture for about 4 days, and cells forming rossettes obtained by adherent culture for about 5 days are shown in FIG. 1B (left: embryoid bodies, right: cells forming rosettes).
2% (v/v) paraformaldehyde (Sigma-Aldrich) was added to cells cultured for a total of 9 days (suspension culture for 4 days+adherent culture for 5 days), and allowed to react at room temperature for about 10 minutes to fix the cells. 2% (v/v) normal serum/1×PBS (Vector Laboratories, Inc., Burlingame, Calif.) containing 0.1% (v/v) TRITON™ X-100 (Sigma-Aldrich) was added to the cells, and allowed to react at room temperature for 30 minutes to block the fixation. To analyze a proportion of cells expressing SOX1 which is a neural progenitor cell (NPC) marker or P75 protein which is a neural crest stem cell (NCSC) marker, immunostaining was performed using phycoerythrin (PE)-labeled anti-P75 monoclonal antibody (1:50 dilution) (Miltenyi Biotec), and phycoerythrin (PE)-labeled anti-Sox1 monoclonal antibody (1:100 dilution) (BD Biosciences). The immunostained cells were subjected to flow cytometry using a BD FACSCalibur flow cytometer (BD Biosciences, Sparks, Md., USA).
H9-hESCs were cultured by the method of differentiating via embryoid bodies as in Example 1.1(1). However, a defined medium 2 described below was used instead of the defined medium 1 used in Example 1.1(1).
The defined medium 2 was prepared by mixing knockout DMEM (Invitrogen), 20% (v/v) knockout serum replacement (KSR, Invitrogen), 2 mM L-glutamine (invitrogen), 1% (w/v) penicillin/streptomycin (Invitrogen), and 0.1 mM β-mercaptoethanol (Invitrogen).
H9-hESCs were cultured by the method of differentiating via embryoid bodies as in Example 1(1). However, a defined medium 3 was used instead of the defined medium 1 used in Example 1(1). The defined medium 3 was prepared by mixing DMEM/F12 (Invitrogen) and N2 supplement (Invitrogen). […]

CHA15-hESC = assay: Differentiation of CHA15-hESC into neural progenitor cells; SOX1/P75 flow cytometry; type: cell-based, human; conditions: defined medium 1 including PKC inhibitor and BMP inhibitor; total of 9 days
Description: as §1
as §2, with “rosettes). […]” for “rosettes).”

CHA6-hESC = assay: Differentiation of CHA6-hESC into neural progenitor cells; SOX1/P75 flow cytometry; type: cell-based, human; conditions: defined medium 1 including PKC inhibitor and BMP inhibitor; total of 9 days
Description: as §1
as §2, with “rosettes). […]” for “rosettes).”

[2] = test system: induced pluripotent stem cell line (iPS cell #3); assay: Differentiation of induced pluripotent stem cell line (iPS cell #3) into neural progenitor cells; SOX1/P75 flow cytometry; type: cell-based, human; conditions: defined medium 1 including PKC inhibitor and BMP inhibitor; total of 9 days
Description: as §1
as §2, with “rosettes). […]” for “rosettes).”

[3] = test system: H9 human embryonic stem cells (hESCs); assay: Differentiation of H9 hESCs into neural progenitor cells via embryoid bodies; SOX1/P75 flow cytometry; type: cell-based; remark: listed apart in the source
[4] = defined medium 2 including PKC inhibitor and BMP inhibitor
[5] = defined medium 3 including PKC inhibitor and BMP inhibitor

Row | Structure (SMILES) | cells expressing SOX1 (NPC marker) ([1]; defined medium 1, 5 μg/ml PKC inhibitor + 0.5 μM DMH1, suspension culture 4 days + adherent culture 5 days) | number of cells expressing P75 (neural crest stem cell marker) ([1]; defined medium 1, 5 μg/ml PKC inhibitor + 0.5 μM DMH1, total of 9 days culture) | differentiation into NPC ([1]; defined medium 1 including PKC inhibitor and DMH1) | differentiation into NPCs [1, 4] | number of cells expressing P75 (neural crest stem cell marker) [1, 4] | cells expressing SOX1 (NPC marker) ([1]; defined medium 2 including PKC inhibitor and BMP inhibitor, 4 days suspension + 5 days adherent) | differentiation into NPCs [1, 5] | number of cells expressing P75 (neural crest stem cell marker) [1, 5] | cells expressing SOX1 (NPC marker) ([1]; defined medium 3 including PKC inhibitor and BMP inhibitor, 4 days suspension + 5 days adherent) | differentiation into NPCs (CHA15-hESC) | differentiation into NPCs (CHA6-hESC) | differentiation into NPCs [2] | differentiation into SOX1-expressing NPCs ([3]; defined medium 1, 5 μM PKC inhibitor + 0.25 μM to 5 μM DMH1) | differentiation into P75-expressing neural crest stem cells ([3]; defined medium 2, 5 μM PKC inhibitor + 0 μM to 0.5 μM DMH1) | differentiation into SOX1-expressing NPCs ([3]; defined medium 2, 5 μM PKC inhibitor + 5 μM DMH1) | differentiation into P75-expressing neural crest stem cells ([3]; defined medium 1, only 5 μM PKC inhibitor without DMH1)
1 | CC(C)Oc1ccc(-c2cnc3c(-c4ccnc5ccccc45)cnn3c2)cc1 [DMH1, 4-[6-[4-(1-methylethoxy)phenyl]pyrazolo[1,5-a]pyrimidin-3-yl]-quinoline] | most of the cultured cells expressed SOX1 | small | differentiation into NPC is induced | differentiation into NPCs is induced | relatively very small | most of the cultured cells expressed SOX1 | differentiation into NPCs is induced | relatively very small | most of the cultured cells expressed SOX1 | differentiation into NPCs is induced | differentiation into NPCs is induced | differentiation into NPCs is induced | ≥ 96% | ≥ 84% | ≥ 96% | –
2 | O=C1NC(=O)C(c2cn(CCCn3ccnc3)c3ccccc23)=C1Nc1ccccc1 [PKC inhibitor] | – | – | – | – | – | – | – | – | – | – | – | – | – | – | – | ≥ 87%
